Results reported in the NIST ThermoML archive (doi:10.1021/je800930v).

What was measured:
[1] = xn = mol fraction of the nth substance listed; details: 101 kPa, Liquid
[2] = 101 kPa, Liquid

CO [methanol] + O=C(O)C1CC1
[1], x2 = 0
Details	mass density [kg/m3]	viscosity [mPa·s]
298.15 K	787.01	0.556
308.15 K	777.54	0.484
318.15 K	767.98	0.424
328.15 K	758.28	0.372

CO [methanol]
[2]
Details	mass density [kg/m3]	viscosity [mPa·s]
298.15 K	787.01	0.556
308.15 K	777.54	0.484
318.15 K	767.98	0.424
328.15 K	758.28	0.372

O=C(O)C1CC1 [cyclopropanecarboxylic acid] + CO
[1]
Details	mass density, 298.15 K [kg/m3]	mass density, 308.15 K [kg/m3]	mass density, 318.15 K [kg/m3]	mass density, 328.15 K [kg/m3]	viscosity, 298.15 K [mPa·s]	viscosity, 308.15 K [mPa·s]	viscosity, 318.15 K [mPa·s]	viscosity, 328.15 K [mPa·s]
x1 = 0.1	846.5	837.02	827.45	817.74	0.773	0.651	0.572	0.499
x1 = 0.2	895.02	885.53	875.84	866.23	1.052	0.886	0.753	0.645
x1 = 0.3	935.16	925.62	916	906.25	1.392	1.151	0.965	0.816
x1 = 0.3999	968.42	958.83	949.18	939.42	1.778	1.451	1.199	1
x1 = 0.4994	996.21	986.56	976.86	967.07	2.189	1.765	1.44	1.191
x1 = 0.5989	1019.49	1009.79	1000.06	990.24	2.557	2.029	1.641	1.349
x1 = 0.7001	1039.41	1029.65	1019.87	1010.04	2.887	2.227	1.825	1.494
x1 = 0.8001	1056.17	1046.35	1036.53	1026.65	3.139	2.449	1.963	1.604
x1 = 0.9	1070.57	1060.68	1050.81	1040.92	3.298	2.553	2.047	1.678
x1 = 1	1082.92	1072.97	1063.04	1053.12	3.306	2.603	2.102	1.739

CCO [ethanol] + O=C(O)C1CC1
[1], x2 = 0
Details	mass density [kg/m3]	viscosity [mPa·s]
298.15 K	785.44	1.097
308.15 K	776.78	0.908
318.15 K	767.94	0.756
328.15 K	758.92	0.634
